Source: ChEMBL document CHEMBL1201862, “PubChem BioAssay data set” (2004)
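Assay format: 96-well plates, 48-hour exposure. The concentration for 50% growth inhibition is given as GI50.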 Calls of active or inactive are those of the source. Rule as the data show it: active = GI50 up to about 1.1 µM and inactive = higher.

Legend:
Assay in all cases: growth of human tumour cells (NCI), 48 h
[1] = test system: RPMI-8226
[2] = test system: SF-268
[3] = test system: HT-29
[4] = test system: SK-OV-3
[5] = test system: OVCAR-5
[6] = test system: SW-620
[7] = test system: SN12C
[8] = test system: MOLT-4
[9] = test system: HOP-92
[10] = test system: M14
[11] = test system: SK-MEL-28
[12] = test system: K562
[13] = test system: HCT-116
[14] = test system: UACC-257
[15] = test system: NCI-H460
[16] = test system: SK-MEL-2

Measured: GI50

Clc1ccc(Cl)c2[s+]snc12
inactive: [1] > 48.6 µM | [2] 46.8 µM | [3] 25 µM | [4] > 100 µM | [5] > 100 µM | [6] 23.6 µM | [7] > 79.3 µM | [8] > 79.6 µM | [9] > 60.7 µM | [10] 55.6 µM | [11] > 100 µM | [12] > 45.8 µM | [13] 21.6 µM | [14] > 93.3 µM | [15] 30.7 µM

O=C1CN=C(c2ccccc2)c2ccncc2N1
inactive: [2] > 100 µM | [3] > 100 µM | [4] > 100 µM | [5] > 100 µM | [6] > 100 µM | [7] > 100 µM | [8] > 100 µM | [9] > 100 µM | [16] > 100 µM | [10] > 100 µM | [11] > 100 µM | [12] > 100 µM | [13] > 100 µM | [14] 26.6 µM

CCOC(=O)NC(=O)c1cn(CCN(CCO)C(=O)NCCCCCCNC(=O)N(CCO)CCn2cc(C(=O)NC(=O)OCC)c(=O)[nH]c2=O)c(=O)[nH]c1=O
inactive: [1] > 100 µM | [2] > 100 µM | [3] > 61 µM | [5] > 100 µM | [6] > 100 µM | [7] > 100 µM | [8] > 100 µM | [9] > 100 µM | [16] > 100 µM | [11] > 100 µM | [12] > 100 µM | [13] > 100 µM | [14] > 100 µM | [15] > 100 µM

O=[PH](O)c1cccs1
inactive: [1] > 100 µM | [2] > 100 µM | [3] > 100 µM | [4] > 100 µM | [6] > 100 µM | [7] > 100 µM | [8] > 100 µM | [9] 57 µM | [10] > 100 µM | [11] > 100 µM | [12] > 100 µM | [13] > 100 µM | [15] > 100 µM

OC12CCC3(O)c4ccccc4C3C1c1ccccc12 (configuration not stated)
inactive: [1] > 100 µM | [2] > 100 µM | [3] > 100 µM | [4] > 100 µM | [6] > 100 µM | [7] > 100 µM | [8] > 100 µM | [16] > 100 µM | [10] > 100 µM | [11] > 100 µM | [12] > 100 µM | [13] > 100 µM | [14] > 100 µM | [15] > 100 µM

Cc1cc(C)nc(NS(=O)(=O)c2ccc(NC(=O)COC(=O)c3cccc4c(=O)c5ccccc5[nH]c34)cc2)n1
inactive: [1] 35.7 µM | [2] 37.7 µM | [3] 33 µM | [4] 38.8 µM | [5] 20.7 µM | [6] 31.8 µM | [7] 40.4 µM | [8] 31.3 µM | [9] 31.1 µM | [10] 56 µM | [11] 31.7 µM | [12] 32 µM | [13] 23.7 µM | [14] 27.1 µM | [15] 49 µM

O=C1CCCCCCCCCCC1CN1CCCCC1 (configuration not stated)
inactive: [1] > 100 µM | [2] > 100 µM | [3] 35.6 µM | [5] 89.7 µM | [6] > 100 µM | [7] > 100 µM | [8] 57 µM | [16] > 100 µM | [10] > 10 µM | [11] 41.6 µM | [12] 94.4 µM | [13] 58.6 µM | [14] 70.6 µM | [15] 51.1 µM

COc1ccc(C(=O)Cc2ccc(Br)cc2)cc1OC
inactive: [1] > 100 µM | [2] > 100 µM | [3] > 100 µM | [4] > 100 µM | [5] > 100 µM | [6] > 100 µM | [7] > 100 µM | [8] > 100 µM | [16] > 100 µM | [10] > 100 µM | [12] > 100 µM | [13] > 100 µM | [14] > 100 µM | [15] > 100 µM

CC(=O)CC(=O)ON(C)C(=O)Cc1ccccc1
inactive: [1] > 100 µM | [2] > 100 µM | [3] > 100 µM | [4] > 100 µM | [5] > 100 µM | [6] > 100 µM | [7] > 100 µM | [8] > 100 µM | [9] > 100 µM | [10] > 100 µM | [11] > 100 µM | [12] > 100 µM | [13] > 100 µM | [14] > 100 µM | [15] > 100 µM

COC(=O)C1(c2ccc(OC)cc2)NC(c2ccccc2)C2C(=O)N(c3ccc(OC)cc3)C(=O)C21 (configuration not stated)
inactive: [1] > 100 µM | [2] > 100 µM | [3] > 100 µM | [4] > 100 µM | [5] > 100 µM | [6] > 100 µM | [7] > 100 µM | [8] > 100 µM | [16] > 100 µM | [10] > 100 µM | [11] > 100 µM | [12] > 100 µM | [14] > 100 µM | [15] > 100 µM

C/C(CC(=O)Nc1cccc([N+](=O)[O-])c1)=N\NC(=O)CC#N
inactive: [1] > 100 µM | [2] > 100 µM | [3] > 100 µM | [4] > 100 µM | [5] > 100 µM | [6] > 100 µM | [8] > 100 µM | [9] > 100 µM | [16] > 100 µM | [10] > 100 µM | [11] > 100 µM | [12] > 100 µM | [13] > 100 µM | [14] > 100 µM

C/C(=N\O)C(CN(C)C)C(c1ccccc1)c1c(O)c2ccccc2oc1=O (configuration not stated)
inactive: [1] > 100 µM | [2] > 100 µM | [3] > 100 µM | [4] > 100 µM | [5] > 100 µM | [6] > 100 µM | [7] > 100 µM | [8] > 100 µM | [9] 34.9 µM | [16] > 100 µM | [10] > 100 µM | [11] > 100 µM | [12] > 100 µM | [13] > 100 µM | [14] > 100 µM

COc1cccc(/C=C2\C(=O)N(C(=O)c3ccc(NC(C)=O)cc3)N=C2C)c1
inactive: [2] > 100 µM | [3] > 100 µM | [5] > 100 µM | [6] > 100 µM | [7] > 100 µM | [8] > 100 µM | [16] > 100 µM | [10] > 100 µM | [11] > 100 µM | [12] > 100 µM | [13] > 100 µM | [14] > 100 µM | [15] > 100 µM

CN(c1ccccc1)c1nc(=[N+]2CCCC2)ss1.[O-][Cl+3]([O-])([O-])[O-]
inactive: [1] > 100 µM | [2] > 100 µM | [4] > 100 µM | [6] > 100 µM | [7] > 100 µM | [8] > 100 µM | [16] > 100 µM | [10] > 100 µM | [11] > 100 µM | [12] 74.5 µM | [13] > 100 µM | [14] > 100 µM | [15] 1.85 µM
